In US20240122212A1 (SUNTORY HOLDINGS LIMITED, priority 2020, published 2024):

Target: T1, sweet taste receptor (T1R2/T1R3) (Homo sapiens, UniProt Q7RTX0+Q8TE23)
T1 construct: endogenous in cells; host or cells: taste cells in the mouths of 3 trained human panelists (in vivo spitting test)
T1 sequence (Q8TE23 20-839): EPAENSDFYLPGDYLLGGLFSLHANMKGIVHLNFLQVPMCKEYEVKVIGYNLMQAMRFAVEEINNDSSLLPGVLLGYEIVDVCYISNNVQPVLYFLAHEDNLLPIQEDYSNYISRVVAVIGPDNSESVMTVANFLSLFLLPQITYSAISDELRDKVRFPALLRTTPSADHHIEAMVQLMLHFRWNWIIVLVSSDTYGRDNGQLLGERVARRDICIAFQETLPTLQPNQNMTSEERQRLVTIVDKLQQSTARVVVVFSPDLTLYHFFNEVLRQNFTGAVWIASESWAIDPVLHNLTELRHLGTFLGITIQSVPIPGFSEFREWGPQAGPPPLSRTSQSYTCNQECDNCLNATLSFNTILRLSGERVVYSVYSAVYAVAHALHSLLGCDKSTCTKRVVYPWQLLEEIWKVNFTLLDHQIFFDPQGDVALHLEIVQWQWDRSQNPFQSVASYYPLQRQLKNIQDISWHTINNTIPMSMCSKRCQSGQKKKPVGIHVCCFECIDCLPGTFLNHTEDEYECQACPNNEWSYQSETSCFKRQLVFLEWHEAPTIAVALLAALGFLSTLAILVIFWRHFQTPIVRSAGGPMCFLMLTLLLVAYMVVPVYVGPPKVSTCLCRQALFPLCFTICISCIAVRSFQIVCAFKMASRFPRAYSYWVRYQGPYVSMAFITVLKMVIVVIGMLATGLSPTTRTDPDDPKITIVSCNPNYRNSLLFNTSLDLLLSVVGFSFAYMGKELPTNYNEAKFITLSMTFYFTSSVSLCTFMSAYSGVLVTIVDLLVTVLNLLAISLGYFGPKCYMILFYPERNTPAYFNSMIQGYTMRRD
T1 sequence (Q7RTX0 21-852): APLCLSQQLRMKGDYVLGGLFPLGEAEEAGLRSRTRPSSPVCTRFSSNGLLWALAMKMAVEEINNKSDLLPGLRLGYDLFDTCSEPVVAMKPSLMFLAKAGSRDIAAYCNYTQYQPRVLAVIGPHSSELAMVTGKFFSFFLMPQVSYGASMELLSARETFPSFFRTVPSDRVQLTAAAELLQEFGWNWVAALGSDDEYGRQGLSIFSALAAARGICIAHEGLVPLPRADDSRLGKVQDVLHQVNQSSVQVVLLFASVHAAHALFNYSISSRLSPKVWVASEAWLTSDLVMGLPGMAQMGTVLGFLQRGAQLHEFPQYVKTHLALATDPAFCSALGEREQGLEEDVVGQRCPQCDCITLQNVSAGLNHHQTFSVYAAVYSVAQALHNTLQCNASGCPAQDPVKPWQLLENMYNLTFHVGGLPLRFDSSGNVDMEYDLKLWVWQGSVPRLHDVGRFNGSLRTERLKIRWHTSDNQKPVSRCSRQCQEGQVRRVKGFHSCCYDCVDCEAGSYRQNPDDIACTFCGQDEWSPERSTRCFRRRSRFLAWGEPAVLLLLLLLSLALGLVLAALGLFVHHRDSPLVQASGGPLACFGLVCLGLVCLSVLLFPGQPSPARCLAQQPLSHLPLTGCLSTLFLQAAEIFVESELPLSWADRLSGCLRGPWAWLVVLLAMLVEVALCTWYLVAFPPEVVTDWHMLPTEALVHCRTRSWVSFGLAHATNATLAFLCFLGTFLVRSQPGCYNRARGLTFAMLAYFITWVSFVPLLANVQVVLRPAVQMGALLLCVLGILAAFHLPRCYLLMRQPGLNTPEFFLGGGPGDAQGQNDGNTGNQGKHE
Experiment: Sensory evaluation of sweetness intensity (VAS) in the co-presence of sweet taste receptor inhibitor lactisole (Example 5)
Type: in vivo
Excerpt: Whether or not a certain sweet substance can trigger a sweetness response even if a sweetness response through the sweet taste receptor T1R2/T1R3 is inhibited may be determined by, for instance, measuring, by sensory evaluation or cell assay, the sweetness intensity of a solution (control solution), in which only the above sweet substance has been dissolved, and the sweetness intensity (remaining sweetness intensity) of a solution (test solution), in which a sweet taste receptor T1R2/T1R3 inhibitor (e.g., lactisole, gymnemic acid) is added for inhibiting a sweetness response through the sweet taste receptor T1R2/T1R3 to the control solution; and by comparing the sweetness intensity of the control solution and the sweetness intensity of the test solution.
The evaluation was carried out by those (3 persons) who received sensory trainings as panelists. […] Additionally, solutions having the same composition as sample solutions 1, 2, 3, and 4 except that lactisole was not added were used as control solutions 1, 2, 3, and 4. The sensory evaluation was carried out by spitting test. The sweetness intensity was rated by the VAS scale and calculated with the intensity of a solution to which lactisole was not added being 100% and the sweetness intensity of a solution to which lactisole was added as a relative value (%). The sweetness inhibitory effect by lactisole was verified by this.

remaining sweetness intensity when 100 ppm of lactisole was added, compared with sucrose (100 ppm lactisole): equal to or more than that of sucrose | Sweetness intensity residual ratio (%) with addition of 100 ppm lactisole (lactisole-free solution = 100%, sucrose 8 w/v %, sucralose 149 ppm, D- or L-arabinose 13.3 w/v %, VAS, average of n=3): 42.47%
Compound: O=C[C@@H](O)[C@H](O)[C@H](O)CO [D-Arabinose]
